Laboratory results published in patent publication US4918062A, “Pharmaceutical compositions for the treatment of cerebral psycho-organic syndromes” (Riace Establishment, priority 1987, dated 1990).

Assays:
[1] = acute toxicity in rabbits; conditions: rabbit, in vivo
Excerpt: (§1) As far as acute toxicity is concerned, the following data are obtained: […]

[2] = test system: senile cerebral alteration, of both involutive and cerebro-vascular insufficiency origin; experiment: clinical tests in the treatment of senile cerebral alteration (overall clinical evaluation); assay type: in vivo, man
Method: 20 patients (10 male and 10 female) 59 to 76 years old were treated; the overall clinical evaluation, taking into account the improvement of the neurophysiological and neurological exams carried out, of the psychometric tests and of the used neurological scale (De Renzi E., Nichelli P.: Verbal and non-verbal short-term memory impairment following hemispheric damage, Cortex, 11, 341-354, 1975; Bisiach E. et. al.: Neurologia Clinica, Ricerche di psicologia, Ed. F. Angeli, Milano, 1977; Cafarra P. et al.: Neuropsychological testing during a transient global amnesia episode and its follow-up, Acta Neurol. Scand.

learning and memory [3] = experiment: learning and memory tests in laboratory animals (summary statement); assay type: in vivo
Method: (§2) The GPE administered i.p. to 20 male mice at the dose of 100 mg/kg subjected to the electroshock test as described by Esseman in Pharmacol. Res. comm.

acute toxicity in mice = conditions: mouse, in vivo
Excerpt: as §1

learning and memory [4] = experiment: electroshock test as described by Esseman (learning and memory); assay type: in vivo; conditions: male mice, 100 mg/kg i.p.
Method: as §2

learning and memory [5] = experiment: pole-climbing test as described by Cook and Weindley (learning and memory); assay type: in vivo; conditions: male rats, 100 mg/kg i.p.
acute toxicity in rats = conditions: rat, in vivo
Excerpt: as §1

[6] = oral route, read-out: oral dose that did not cause either death or any symptomatology
[7] = case 1, cerebral vasculopathy with mental decline
[8] = overall clinical evaluation, 20 patients, 59 to 76 years old

NCCOP(=O)(O)OC[C@H](O)CO [GPE, L-α-glycerylphosphorylethanolamine]
LD50 ([1]; im, intramuscular route): > 1000 mg/kg | NOAEL [1, 6]: ≥ 3000 mg/kg | tolerability (overall) ([2]; 20 patients, 59 to 76 years old): always excellent | Evaluation: Activity [2, 7]: good | Evaluation: Tolerability [2, 7]: very good | Evaluation: Activity ([2]; case 2, mental decline in cerebral vasculopathic): insufficient | Evaluation: Activity ([2]; case 3, cerebral vasculopathy with mental decline): very good | Evaluation: Activity ([2]; case 4, mental involution with serious cerebral atrophy): very good | Evaluation: Activity ([2]; case 5, Alzheimer disease): moderate | Evaluation: Activity ([2]; case 6, cerebral atrophy with extrapiramidal syndrome and decline): moderate | Evaluation: Activity ([2]; case 8, multifocal dementia): good | Evaluation: Activity ([2]; case 9, presenile Alzheimer disease): good | Evaluation: Activity ([2]; case 10, multifocal dementia with incipient cerebral): very good | Evaluation: Activity ([2]; case 11, cerebral vasculopathy with mental decline): very good | Evaluation: Activity ([2]; case 12, Alzheimer disease with cerebral atrophy): good | Evaluation: Activity ([2]; case 13, cerebral vasculopathy with mental decline): good | Evaluation: Activity ([2]; case 14, vasculopathy prevailing in the vertebro-basilar): moderate | Evaluation: Activity ([2]; case 15, cerebral vasculopathy with mental decline): moderate | Evaluation: Activity ([2]; case 16, Alzheimer disease): good | Evaluation: Activity ([2]; case 17, Alzheimer disease with initial cerebral atrophy): very good | Evaluation: Activity ([2]; case 18, Alzheimer disease): very good | Evaluation: Activity ([2]; case 19, cerebral vasculopathy with cerebral atrophy): good | Evaluation: Activity ([2]; case 20, multifocal dementia): good | influence on neurophysiological parameters, psychometric tests and neurologic scales ([2]; man): ability to influence in a likewise significant way the neurophysiological parameters, the psychometric tests and the used neurologic scales | cases with significantly positive therapeutic effect [2, 8]: 19 cases | treatments considered to be insufficient [2, 8]: only one | pharmacological activity in clinical tests ([2]; senile cerebral alteration and related symptomatology): confirmed in clinical tests | response to the learning and memory tests (learning and memory [3]): significantly improve the response to the learning and memory tests | LD50 (acute toxicity in mice; im, intramuscular route): > 1500 mg/kg | NOAEL (acute toxicity in mice; [6]): ≥ 3000 mg/kg | ability to activate learning and memory in comparison to the untreated animals (learning and memory [4]): significantly shown the ability to activate learning and memory | ability to activate learning and memory in comparison to the untreated animals (learning and memory [5]): significantly shown the ability to activate learning and memory | LD50 (acute toxicity in rats; im, intramuscular route): > 1500 mg/kg | NOAEL (acute toxicity in rats; [6]): ≥ 3000 mg/kg
